This note sets out measurements from patent publication US10160755B2 (Plexxikon Inc., priority 2015, dated 2018).

One test addresses T1, FLT3-ITD (Homo sapiens, UniProt P36888).
T1 construct: FLT3-ITD; Invitrogen #PV6190
T1 sequence (P36888 1-993): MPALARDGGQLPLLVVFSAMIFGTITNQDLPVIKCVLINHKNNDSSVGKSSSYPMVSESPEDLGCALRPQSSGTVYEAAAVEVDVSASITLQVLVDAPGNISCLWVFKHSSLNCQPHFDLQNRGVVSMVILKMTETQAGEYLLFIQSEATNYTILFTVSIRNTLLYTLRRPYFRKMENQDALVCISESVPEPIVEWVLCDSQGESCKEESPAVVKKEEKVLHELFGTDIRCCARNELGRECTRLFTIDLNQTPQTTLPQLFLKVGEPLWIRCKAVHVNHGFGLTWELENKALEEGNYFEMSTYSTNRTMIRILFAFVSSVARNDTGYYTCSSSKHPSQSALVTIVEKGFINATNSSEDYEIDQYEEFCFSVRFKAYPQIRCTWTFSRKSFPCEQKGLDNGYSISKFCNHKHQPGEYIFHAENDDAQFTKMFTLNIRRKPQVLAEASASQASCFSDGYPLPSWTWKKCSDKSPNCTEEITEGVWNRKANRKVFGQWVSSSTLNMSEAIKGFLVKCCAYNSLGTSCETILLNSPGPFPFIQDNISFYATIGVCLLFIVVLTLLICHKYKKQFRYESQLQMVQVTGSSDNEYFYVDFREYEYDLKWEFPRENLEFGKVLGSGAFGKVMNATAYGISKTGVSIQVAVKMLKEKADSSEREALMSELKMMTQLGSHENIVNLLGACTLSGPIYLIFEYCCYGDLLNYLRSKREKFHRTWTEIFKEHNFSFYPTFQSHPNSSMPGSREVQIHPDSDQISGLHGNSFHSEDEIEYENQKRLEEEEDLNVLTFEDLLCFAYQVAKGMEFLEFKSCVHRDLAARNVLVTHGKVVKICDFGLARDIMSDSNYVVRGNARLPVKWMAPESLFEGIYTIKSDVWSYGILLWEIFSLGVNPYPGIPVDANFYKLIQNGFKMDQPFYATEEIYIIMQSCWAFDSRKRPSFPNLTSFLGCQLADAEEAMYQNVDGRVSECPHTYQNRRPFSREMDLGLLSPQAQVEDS
Nature of the test: FLT3-ITD biochemical kinase assay (AlphaScreen). The text has this: (§1) In order to determine the effect of compounds on FLT3 catalytic activity, kinase assays using recombinant enzymes and AlphaScreen® technology have been established. When the kinases are catalytically active, they phosphorylate a biotinylated peptide substrate on tyrosine residues. Using AlphaScreen® technology, the ability of the compounds to affect the catalytic activity of the kinases can be measured quantitatively. The peptide substrate is immobilized by the AlphaScreen® Streptavidin Donor beads and, upon phosphorylation by a tyrosine kinase, can bind to AlphaScreen® Anti-Phosphotyrosine (PY20) Acceptor beads. Upon excitation of these beads with laser light at 680 nm, singlet oxygen is produced. This singlet oxygen is rapidly quenched, unless the AlphaScreen® Anti-Phosphotyrosine (PY20) Acceptor beads are in close proximity, in which case a proximity signal can be measured at 580 nm. In the presence of catalytic activity, there is a very strong proximity signal. Selective kinase inhibitors affect a decrease in this proximity signal through a decrease in tyrosine phosphorylation of the peptide substrate.
(§2) Substrate • Poly (Glu4-Tyr) Peptide, biotin conjugate [Biotin-GG(EEEEY)10EE (SEQ ID NO: 4)] • UBI/Millipore #12-440 • Final concentration=30 nM
(§3) Adenosine Triphosphate (ATP) • Sigma #A-3377 • Final concentration for IC50 determination=10 μM (FLT3-D835Y) or 100 μM (FLT3 or FLT3-ITD) • Detection Reagent • AlphaScreen® Phosphotyrosine (PY20) Assay Kit • Perkin-Elmer #6760601M • Final concentration=10 μg/mL
(§4) Centrifuge 1 minute, shake to mix, and incubate as follows:
(§5) • Mix Streptavidin Donor beads at 6× final concentration in Stop/Detection buffer. • Add 5 μL Streptavidin Donor beads to the reaction plate. Centrifuge 1 minute, shake to mix, and incubate at room temperature for 20 minutes. • Mix Anti-Phosphotyrosine (PY20) Acceptor beads at 6× final concentration in Stop/Detection buffer. • Add 5 μL Anti-Phosphotyrosine (PY20) beads to the reaction plate. • Centrifuge 1 minute, shake to mix, and incubate at room temperature for 60 minutes. • Read plate on Wallac EnVision™ 2103 Multilabel Reader. In Vivo Model System Testing

In another test the target is T2, FLT3-D835Y (Homo sapiens, UniProt P36888, D835Y).
T2 construct: purchased Invitrogen PV3967
T2 sequence (P36888 27-993 D835Y): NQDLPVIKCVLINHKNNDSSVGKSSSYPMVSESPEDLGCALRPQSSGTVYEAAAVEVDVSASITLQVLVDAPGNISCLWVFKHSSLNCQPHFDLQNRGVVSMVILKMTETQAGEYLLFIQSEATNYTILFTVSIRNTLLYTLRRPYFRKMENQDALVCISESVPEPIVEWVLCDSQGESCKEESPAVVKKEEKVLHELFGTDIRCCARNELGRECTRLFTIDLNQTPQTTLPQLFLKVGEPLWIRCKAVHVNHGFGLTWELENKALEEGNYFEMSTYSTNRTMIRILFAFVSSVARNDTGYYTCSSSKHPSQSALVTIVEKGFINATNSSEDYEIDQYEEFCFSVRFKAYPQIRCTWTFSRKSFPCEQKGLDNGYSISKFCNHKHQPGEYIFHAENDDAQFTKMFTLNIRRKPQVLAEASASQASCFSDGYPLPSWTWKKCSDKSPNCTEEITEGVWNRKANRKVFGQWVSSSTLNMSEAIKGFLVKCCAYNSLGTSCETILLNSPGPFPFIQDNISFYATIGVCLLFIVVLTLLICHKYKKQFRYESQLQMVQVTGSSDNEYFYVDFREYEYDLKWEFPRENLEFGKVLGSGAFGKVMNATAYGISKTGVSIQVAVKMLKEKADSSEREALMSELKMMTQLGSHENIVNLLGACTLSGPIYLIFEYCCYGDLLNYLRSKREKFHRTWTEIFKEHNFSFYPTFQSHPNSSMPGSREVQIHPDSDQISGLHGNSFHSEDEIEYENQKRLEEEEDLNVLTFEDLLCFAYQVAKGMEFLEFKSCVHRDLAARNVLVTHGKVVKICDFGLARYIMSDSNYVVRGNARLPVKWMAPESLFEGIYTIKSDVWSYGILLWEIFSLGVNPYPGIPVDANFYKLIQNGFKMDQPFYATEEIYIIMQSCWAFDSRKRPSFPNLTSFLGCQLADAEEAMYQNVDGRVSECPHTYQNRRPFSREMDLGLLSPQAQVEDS
The experiment in a line: FLT3-D835Y biochemical kinase assay (AlphaScreen).
From the text: as §1, §2, §3, §4, §5
On the technique in general: Alpha assays give light when donor and acceptor beads are brought close together.

Take `COc1cc(-c2cnc3[nH]cc(-c4ccc5ncn(C)c5c4)c3n2)cc(C)n1` [P-180, 2-(2-methoxy-6-methyl-4-pyridyl)-7-(3-methylbenzimidazol-5-yl)-5H-pyrrolo[2,3-b]pyrazine]: the IC50 at FLT3-ITD and at FLT3-D835Y was 0.0001 to 1 µM each time. For the molecule `O=C(C1CC1)N1CC=C(c2cnc3[nH]cc(-c4ccc5c(c4)N(CC(F)(F)F)CCO5)c3n2)C1` [P-190], the 50% inhibitory concentration (IC50) against FLT3-ITD and against FLT3-D835Y was 0.0001 to 1 µM throughout. As to `CC(C)(C)n1cnc2ccc(-c3c[nH]c4ncc(NS(=O)(=O)c5cccc(OC(F)(F)F)c5)cc34)cc21` [P-213, N-[3-(3-tert-butylbenzimidazol-5-yl)-1H-pyrrolo[2,3-b]pyridin-5-yl]-3-(trifluoromethoxy)benzenesulfonamide], the IC50 (in general, the midpoint of a concentration-inhibition curve) fell in the range of 0.0001 to 1 µM at FLT3-ITD and 1 to 10 µM against FLT3-D835Y. Take `O=C(NC1CC1)c1cccc(-c2cnc3[nH]cc(-c4ccc5ncsc5c4)c3n2)c1` [P-162, 3-[7-(1,3-benzothiazol-6-yl)-5H-pyrrolo[2,3-b]pyrazin-2-yl]-N-cyclopropyl-benzamide]: the IC50 against FLT3-ITD and against FLT3-D835Y was 0.0001 to 1 µM throughout. For `N#Cc1cccc(-c2cnc3[nH]cc(-c4ccc5ncsc5c4)c3n2)c1` [P-181, 3-[7-(1,3-benzothiazol-6-yl)-5H-pyrrolo[2,3-b]pyrazin-2-yl]benzonitrile], the IC50 against FLT3-ITD and on FLT3-D835Y was 0.0001 to 1 µM in each case. As to `Cn1cnc2ccc(-c3c[nH]c4ncc(-c5cccc(N6CCCS6(=O)=O)c5)nc34)cc21` [P-153, 2-[3-[7-(3-methylbenzimidazol-5-yl)-5H-pyrrolo[2,3-b]pyrazin-2-yl]phenyl]-1,2-thiazolidine 1,1-dioxide], the IC50 against FLT3-ITD and on FLT3-D835Y was 0.0001 to 1 µM in each case. `Cc1ncc(-c2cnc3[nH]cc(-c4ccc5ncn(C(C)(C)C)c5c4)c3c2)cn1` [P-395, 1-tert-butyl-6-[5-(2-methylpyrimidin-5-yl)-1H-pyrrolo[2,3-b]pyridin-3-yl]benzimidazole]: the IC50 against FLT3-ITD lay in the range of 0.0001 to 1 µM. Still for that read-out and setting: as for `CC(C)(C)n1cnc2ccc(-c3c[nH]c4ncc(-c5cccc(OCC#N)c5)cc34)cc21` [P-367, 2-[3-[3-(3-tert-butylbenzimidazol-5-yl)-1H-pyrrolo[2,3-b]pyridin-5-yl]phenoxy]acetonitrile], the figure is 0.0001 to 1 µM; as for `C=CCS(=O)(=O)Nc1cccc(-c2cnc3[nH]cc(-c4ccc5ncn(C(C)(C)C)c5c4)c3c2)c1` [P-375, N-[3-[3-(3-tert-butylbenzimidazol-5-yl)-1H-pyrrolo[2,3-b]pyridin-5-yl]phenyl]prop-2-ene-1-sulfonamide], 0.0001 to 1 µM. Same read-out and setting: as for `CC(C)(C)n1cnc2ccc(-c3c[nH]c4ncc(-c5cnc(C(=O)O)nc5)cc34)cc21` [P-402, 5-[3-(3-tert-butylbenzimidazol-5-yl)-1H-pyrrolo[2,3-b]pyridin-5-yl]pyrimidine-2-carboxylic acid], the figure is 0.0001 to 1 µM. In turn, `CC(C)(C)n1cnc2ccc(-c3c[nH]c4ncc(-c5cnc(NC6CC6)nc5)cc34)cc21` [P-400, 5-[3-(3-tert-butylbenzimidazol-5-yl)-1H-pyrrolo[2,3-b]pyridin-5-yl]-N-cyclopropyl-pyrimidin-2-amine] yielded an IC50 against FLT3-ITD of 0.0001 to 1 µM. Same read-out and setting: next, `Cc1cc(-c2cnc3[nH]cc(-c4ccc5ncn(C(C)(C)C)c5c4)c3c2)cnc1F` [P-394, 1-tert-butyl-6-[5-(6-fluoro-5-methyl-3-pyridyl)-1H-pyrrolo[2,3-b]pyridin-3-yl]benzimidazole]: 0.0001 to 1 µM. For the molecule `CC(C)(C)n1cnc2ccc(-c3c[nH]c4ncc(-c5cncc(NS(C)(=O)=O)c5)cc34)cc21` [P-371, N-[5-[3-(3-tert-butylbenzimidazol-5-yl)-1H-pyrrolo[2,3-b]pyridin-5-yl]-3-pyridyl]methanesulfonamide], the IC50 on FLT3-ITD was in the range of 0.0001 to 1 µM.

For the molecule `CC(C)(C)n1cnc2ccc(-c3c[nH]c4ncc(-c5cccc(OCC6CC6)c5)cc34)cc21` [P-373, 1-tert-butyl-6-[5-[3-(cyclopropylmethoxy)phenyl]-1H-pyrrolo[2,3-b]pyridin-3-yl]benzimidazole], the IC50 against FLT3-ITD lay within 0.0001 to 1 µM. Molecule `Cc1ncc(-c2cnc3[nH]cc(-c4ccc5ncn(C(C)(C)C)c5c4)c3c2)cc1F` [P-392, 1-tert-butyl-6-[5-(5-fluoro-6-methyl-3-pyridyl)-1H-pyrrolo[2,3-b]pyridin-3-yl]benzimidazole] yielded an IC50 against FLT3-ITD of 0.0001 to 1 µM. For the molecule `CC(C)(C)n1cnc2ccc(-c3c[nH]c4ncc(-c5cncnc5)cc34)cc21` [P-399, 1-tert-butyl-6-(5-pyrimidin-5-yl-1H-pyrrolo[2,3-b]pyridin-3-yl)benzimidazole], the IC50 on FLT3-ITD lay in the range of 0.0001 to 1 µM. `Cc1cc(-c2cnc3[nH]cc(-c4ccc5ncn(C(C)(C)C)c5c4)c3n2)ccn1` [P-403, 7-(3-tert-butylbenzimidazol-5-yl)-2-(2-methyl-4-pyridyl)-5H-pyrrolo[2,3-b]pyrazine] had an IC50 against FLT3-ITD of 0.0001 to 1 µM. The same measure, in the same setting: next, `CC(C)(C)n1cnc2ccc(-c3c[nH]c4ncc(-c5cnc(N6CCC6)nc5)cc34)cc21` [P-398, 5-[2-(azetidin-1-yl)pyrimidin-5-yl]-3-(3-tert-butylbenzimidazol-5-yl)-1H-pyrrolo[2,3-b]pyridine]: 0.0001 to 1 µM; `Cc1ncc(-c2cnc3[nH]cc(-c4ccc5ncn(C(C)(C)C)c5c4)c3c2)cc1C#N` [P-391, 5-[3-(3-tert-butylbenzimidazol-5-yl)-1H-pyrrolo[2,3-b]pyridin-5-yl]-2-methyl-pyridine-3-carbonitrile]: 0.0001 to 1 µM; `COc1cc(-c2cnc3[nH]cc(-c4ccc5ncn(C(C)(C)C)c5c4)c3c2)ccc1C#N` [P-372, 4-[3-(3-tert-butylbenzimidazol-5-yl)-1H-pyrrolo[2,3-b]pyridin-5-yl]-2-methoxy-benzonitrile]: 0.0001 to 1 µM.
